Experiments:
[1] = test system: mice transplanted with bone marrow; test: Promoting action on recovery of leukocyte count in mice transplanted with bone marrow; assay type: in vivo, ICR mice; conditions: for Leukocyte count: X-irradiation (8.0 Gy)+bone marrow transplantation (day 0, 7, 14); for Leukocyte count / Increase in leukocyte count: day 38; for Increase in leukocyte count: relative ratio of increased count to decreased count of bone marrow transplanted mice
Experimental: Experimental Example 8 : Promoting action on recovery of leukocyte count in mice transplanted with bone marrow
ICR mice (6-8 weeks old) were exposed to 8.0 Gy total body irradiation and 10⁷ bone marrow cells from the mice of the same species were transplanted to the mice. The bone marrow transplantation was performed three times on day 0, day 7 and day 14. Then, the compound of the present invention was intravenously administered for 14 consecutive days starting from the next day of the first bone marrow transplantation. On day 38 after the first bone marrow transplantation, blood was taken and leukocyte count was measured using an automatic cell counter. The experiment was done with 5 mice per group. The relative ratio of the increased leukocyte count to the decreased leukocyte count of the mice transplanted with bone marrow was calculated and expressed in percentage.

[2] = test system: mice irradiated with X-rays; test: Promoting action on recovery of erythrocyte count in mice irradiated with X-rays (therapeutic effects); assay type: in vivo, BALB/c mice; conditions: day 14, mean±SD
Experimental: Experimental Example 4 : Promoting action on recovery of erythrocyte count in mice irradiated with X-rays (therapeutic effects)
BALB/c mice (4-5 weeks old) were exposed to 4.0 Gy total body irradiation. Compound A was intravenously administered for 9 consecutive days starting from the next day of the X-ray irradiation to 9 days thereafter. On day 14 after the X-ray irradiation, blood was taken from orbital vein plexus of mice and erythrocyte count was measured using an automatic cell counter. The experiment was done with 6 mice per group and the results are shown as mean value±standard deviation.

[3] = test system: mice transplanted with bone marrow; test: Promoting action on recovery of platelet count in mice transplanted with bone marrow; assay type: in vivo, ICR mice; conditions: day 11; for Platelet count: X-irradiation (8.0 Gy)+bone marrow transplantation; for Increase in platelet count: difference between untreated group and bone marrow transplanted group = 100%
Excerpt: Experimental Example 1 : Promoting action on recovery of platelet count in mice transplanted with bone marrow
(§1) ICR mice (6-8 weeks old) were exposed to 8.0 Gy total body irradiation and 10⁷ bone marrow cells from the mice of the same species were transplanted to the mice. Then, Compound A or Compound B was intravenously administered for 9 consecutive days starting from the next day of the bone marrow transplantation. On day 11 after the bone marrow transplantation, heparinized blood was taken from the abdominal aorta of mice and platelet count was measured using an automatic cell counter. The experiment was done with 5 mice per group. The difference in platelet count between an untreated group and the bone marrow transplanted group was taken as 100%, based on which increase in the platelet count was calculated.

[4] = test system: mice transplanted with bone marrow; test: Promoting action on recovery of erythrocyte count in mice transplanted with bone marrow; assay type: in vivo, ICR mice; conditions: X-irradiation (8.0 Gy)+bone marrow transplantation, day 11
Excerpt: Experimental Example 5 : Promoting action on recovery of erythrocyte count in mice transplanted with bone marrow
as §1, with “A” for “A or Compound B”, “erythrocyte” for “platelet”, “group.” for “group. The difference in platelet count between an untreated group and the bone marrow transplanted group was taken as 100%, based on which increase in the platelet count was calculated.”

[5] = test system: mice irradiated with X-rays; test: Promoting action on recovery of erythrocyte count in mice irradiated with X-rays (preventive effects); assay type: in vivo, BALB/c mice; conditions: mean±SD
Experimental: Experimental Example 3 : Promoting action on recovery of erythrocyte count in mice irradiated with X-rays (preventive effects)
BALB/c mice (4-5 weeks old) were exposed to 4.0 Gy total body irradiation. Compound A was intravenously administered for 3 consecutive days starting from 3 days before and up to the previous day of the irradiation. On day 19 and day 22 after the X-ray irradiation, blood was taken from orbital vein plexus of mice and erythrocyte count was measured using an automatic cell counter. The experiment was done with 8 mice per group and the results are shown as mean value±standard deviation.

[6] = test system: rats; test: Acute toxicity test; assay type: in vivo; conditions: orally administered to rats, dose of 1000 mg/kg
Experimental: Experimental Example 9 : Acute toxicity test
Compound A, Compound B or Compound C was orally administered to rats. As a result, no death case was found at a dose of 1000 mg/kg.

[7] = test system: mice administered with cyclophosphamide; test: Stimulating action on recovery of leukocyte count (cyclophosphamide-treated mice); assay type: in vivo, ICR mice; conditions: for Leukocyte count: cyclophosphamide 200 mg/kg i.p., day 4; for Increase in leukocyte count: relative ratio to count of mice administered with cyclophosphamide (=100)
Experimental: Experimental Example 7 : Stimulating action on recovery of leukocyte count
ICR mice (20-25 g body weight) were intraperitoneally administered with 200 mg/kg of cyclophosphamide and the compound of the present invention was intravenously administered for 3 days starting from the next day of the administration. On day 4 after the cyclophosphamide administration, the blood of the ICR mice was taken and leukocyte count was measured using Coulter counter. The relative ratio of the count to the peripheral leukocyte count of the mice administered with cyclophosphamide was calculated and expressed in percentage.

[8] = test system: rats administered with anti-tumor drug; test: Promoting action on recovery of decreased platelet count in rats administered with anti-tumor drug (nimustine hydrochloride); assay type: in vivo, SD rats; conditions: 1.0 mg/kg i.v. on day 8, 9, 10 and 14 after initial nimustine hydrochloride
Experimental: Experimental Example 2 : Promoting action on recovery of decreased platelet count in rats administered with anti-tumor drug
An anti-tumor drug, nimustine hydrochloride, (30 mg/kg) was intravenously administered to SD rats (6 weeks old) and 15 mg/kg thereof was intravenously administered the next day. Compound A was intravenously administered for 4 days on day 8, day 9, day 10 and day 14 after the initial administration of nimustine hydrochloride. On certain days after the administration, heparinized blood was taken from the rat tail vein and platelet count was measured using an automatic cell counter. The experiment was done with 4-6 rats per group.

[9] = 0.01 mg/kg i.v. for 14 consecutive days
[10] = 0.1 mg/kg i.v. for 14 consecutive days
[11] = 0.01 mg/kg i.v. for 3 consecutive days before 4.0 Gy irradiation
[12] = 0.1 mg/kg i.v. for 3 consecutive days before 4.0 Gy irradiation
[13] = 1 mg/kg i.v. for 3 consecutive days before 4.0 Gy irradiation

Q: Which results are given for `CC(CN(C)C)Oc1ccc(-c2nn(CC(=O)O)c3ncccc23)cc1` (stereo not drawn) [Comp. A, 3-[4-(2-dimethylamino-1-methylethoxy)phenyl]-1H-pyrazolo[3,4-b]pyridine-1-acetic acid]?
A: Leukocyte count [1, 9]: 65±7 10²/mm³; Increase in leukocyte count ([1]; 0.01 mg/kg i.v.): 30%; Leukocyte count [1, 10]: 75±5 10²/mm³; Increase in leukocyte count ([1]; 0.1 mg/kg i.v.): 46%; Leukocyte count ([1]; 1 mg/kg i.v. for 14 consecutive days): 81±4 10²/mm³; Increase in leukocyte count ([1]; 1 mg/kg i.v.): 56%; Erythrocyte count ([2]; 0.01 mg/kg i.v. for 9 consecutive days after 4.0 Gy irradiation): 535±98 10⁴/mm³; Erythrocyte count ([2]; 0.1 mg/kg i.v. for 9 consecutive days after 4.0 Gy irradiation): 686±72 10⁴/mm³; Platelet count ([3]; Table 1, 0.01 mg/kg i.v. for 9 consecutive days): 27.4±9.6 10⁴/mm³; Increase in platelet count ([3]; Table 1, 0.01 mg/kg i.v.): 30%; Platelet count ([3]; Table 1, 0.03 mg/kg i.v. for 9 consecutive days): 31.4±11.4 10⁴/mm³; Increase in platelet count ([3]; Table 1, 0.03 mg/kg i.v.): 41%; Platelet count ([3]; Table 1, 0.1 mg/kg i.v. for 9 consecutive days): 42.3±10.6 10⁴/mm³; Increase in platelet count ([3]; Table 1, 0.1 mg/kg i.v.): 71%; Platelet count ([3]; Table 1, 0.3 mg/kg i.v. for 9 consecutive days): 49.8±9.7 10⁴/mm³; Increase in platelet count ([3]; Table 1, 0.3 mg/kg i.v.): 91%; Erythrocyte count ([4]; 0.01 mg/kg i.v. for 9 consecutive days): 699±51 10⁴/mm³; Erythrocyte count ([4]; 0.1 mg/kg i.v. for 9 consecutive days): 714±56 10⁴/mm³; Erythrocyte count day 19 [5, 11]: 835±102 10⁴/mm³; Erythrocyte count day 22 [5, 11]: 904±45 10⁴/mm³; Erythrocyte count day 19 [5, 12]: 837±118 10⁴/mm³; Erythrocyte count day 22 [5, 12]: 916±86 10⁴/mm³; Erythrocyte count day 19 [5, 13]: 856±118 10⁴/mm³; Erythrocyte count day 22 [5, 13]: 932±86 10⁴/mm³; death cases (acute toxicity) [6]: no death case; Leukocyte count ([7]; 0.01 mg/kg i.v. for 3 days): 18±8 10²/mm³; Increase in leukocyte count ([7]; 0.01 mg/kg i.v.): 164%; Leukocyte count ([7]; 0.1 mg/kg i.v. for 3 days): 25±6 10²/mm³; Increase in leukocyte count ([7]; 0.1 mg/kg i.v.): 227%; Leukocyte count ([7]; 1 mg/kg i.v. for 3 days): 30±6 10²/mm³; Increase in leukocyte count ([7]; 1 mg/kg i.v.): 273%; Platelet count day 25 ([8]; day 25): 17.7±21.8 10⁴/mm³; Platelet count day 44 ([8]; day 44): 57.3±20.2 10⁴/mm³

Q: `C[C@@H](CN(C)C)Oc1ccc(-c2nn(CC(=O)O)c3ncccc23)cc1` [Comp. B, (S)-3-[4-(2-dimethylamino-1-methylethoxy)phenyl]-1H-pyrazolo[3,4-b]pyridine-1-acetic acid] was tested. Which Leukocyte count [1, 9] did it give?
A: 76±10 10²/mm³

Q: What about the “Increase in leukocyte count” value ([1]; 0.01 mg/kg i.v.) of the same molecule?
A: 48%

Q: And the Leukocyte count [1, 10]?
A: 89±6 10²/mm³

Q: And the “Increase in leukocyte count” value ([1]; 0.1 mg/kg i.v.)?
A: 69%

Q: What about the “strength of leukocyte count recovery effect relative to Compound A” value ([1]; bone marrow transplanted mice, comparison from Table 8) of the same molecule?
A: about ten times stronger effect

Q: What about the Platelet count ([3]; Table 2, 0.01 mg/kg i.v. for 9 consecutive days) of the same molecule?
A: 45.9±6.7 10⁴/mm³

Q: What about the “Increase in platelet count” value ([3]; Table 2, 0.01 mg/kg i.v.) of the same molecule?
A: 65%

Q: And the Platelet count ([3]; Table 2, 0.03 mg/kg i.v. for 9 consecutive days)?
A: 54.8±13.6 10⁴/mm³

Q: And the “Increase in platelet count” value ([3]; Table 2, 0.03 mg/kg i.v.)?
A: 81%

Q: And the “death cases (acute toxicity)” value [6]?
A: no death case

Q: And the Leukocyte count ([7]; 0.003 mg/kg i.v. for 3 days)?
A: 19±5 10²/mm³

Q: And the “Increase in leukocyte count” value ([7]; 0.003 mg/kg i.v.)?
A: 173%

Q: What about the Leukocyte count ([7]; 0.03 mg/kg i.v. for 3 days) of the same molecule?
A: 27±5 10²/mm³

Q: And the “Increase in leukocyte count” value ([7]; 0.03 mg/kg i.v.)?
A: 245%

Q: What about the Leukocyte count ([7]; 0.3 mg/kg i.v. for 3 days) of the same molecule?
A: 30±6 10²/mm³

Q: And the “Increase in leukocyte count” value ([7]; 0.3 mg/kg i.v.)?
A: 273%

Q: And the “strength of leukocyte count recovery effect relative to Compound A” value ([7]; cyclophosphamide-pretreated mice, comparison from Table 7)?
A: about three times stronger effect

Q: How did the “death cases (acute toxicity)” value [6] turn out when `CCOC(=O)Cn1nc(-c2ccc(O[C@@H](C)CN(C)C)cc2)c2cccnc21.Cl` [Compound C, ethyl (S)-3-[4-(2-dimethylamino-1-methylethoxy)phenyl]-1H-pyrazolo[3,4-b]pyridine-1-acetate hydrochloride] was run?
A: no death case
